Results published in a melting point compilation (Tetko et al.; mined from patent text by program, amines drawn as free bases though some values may be those of a salt).

melting point [°C]	Compound
237 to 242	O=C1NC(=O)c2c1c(-c1ccccc1Cl)cc1c2c2cc(O)ccc2n1CCS(=O)c1ncn[nH]1 (stereo not given)
51 to 51.5	CCCCCCCCCC(=O)COS(=O)(=O)c1ccc(Cl)cc1
120 to 121	Nc1cc(F)ccc1C(=O)NCc1ccc(Br)cc1F
82 to 84.5	CC(=O)CS(=O)CCc1ccc2c(c1)OCO2 (stereo not given)
184 to 186	COc1cc(Br)c(OC(=O)c2ccc(OC)c(F)c2)c(NC(=O)c2ccc(OC)c(F)c2)c1
82 to 83	O=C1c2cc(Cl)ccc2COc2ccccc21
160 to 162	COC(=O)c1cccc(NC(=O)c2ccc(OC)c(N)c2)c1
144 to 146	COC(=O)C=Cc1ccc(OCCn2c(=O)sc3cc(C(=O)c4ccccc4)ccc32)cc1
158 to 159	CN(Cc1ccc(NC(=O)C2=Cc3cc(-c4cccnc4)ccc3OCC2)cc1)C1CCOCC1
265 to 270	O=C(C=Cc1ccc(-c2ccc(Cl)cc2)cc1)Nc1ccc(CN2CCCCC2)cc1
181 to 183	C=C1C(=O)Nc2ccc(C(F)(F)F)cc2CC1c1ccc(OC)cc1 (stereo not given)
132 to 134	CCCCOCCOc1ccc(-c2ccc(-n3cccn3)c(C=C(C)C(=O)O)c2)cc1
131	CC1C(C(N)=O)CC2CC1C2(C)C (single isomer, unassigned; (+))
191 to 212	O=C1Nc2ccccc2NC2CCCC12 (stereo not given)
234 to 236	CC(=O)OCC(=O)Nc1cccc2c1C(=O)N(C1CCC(=O)NC1=O)C2=O (stereo not given)
84 to 87	CC(C)COC(=O)N[C@@H](Cc1ccc2ccccc2c1)C(=O)CSCc1ccco1
185 to 187	CC(Cl)(Cl)C(NC(=O)c1ccc(Cl)cc1)NC(=NC#N)Nc1cccnc1 (stereo not given)
124 to 126	COC(=O)N=C1SCC(=O)N1c1c(-c2ccccc2)csc1NC(=O)CN(C)C
55 to 58	CC(n1ncnn1)C(O)(c1ccc(OC(F)(F)F)cc1)c1ccc(OC(F)(F)F)cc1 (stereo not given)
205 to 210	COc1cc2cc3ncc(C#N)c(Nc4ccc(F)c(Cl)c4)c3cc2cc1OCCN1CCOCC1
274	Cc1c(C(=O)Nc2ccc(N3CCN(C4CCOCC4)CC3)c(C#N)c2)cnn1-c1ccc(C(F)(F)F)cc1
184 to 185	CCn1c2ccccc2c2oc(C#N)cc(=O)c21

melting point [°C]	Compound
> 275	CS(=O)(=O)c1ccc(-c2cc(-c3nc4ccccc4c(=O)n3-c3ccccc3)sc2N2CCOCC2)cc1
142 to 144	COC(=O)C(=O)c1c(Cl)cc(OCCOc2ccc3ccccc3c2)cc1Cl
54 to 55	O=S(=O)(Oc1ccc2ccccc2c1-c1nnc(Cl)c2ccccc12)C(F)(F)F
118 to 119	CCOC(=O)c1c(C)nc2scnc2c1N
53 to 56	COC(=O)C1=C(C)NC(C)=C(C(=O)OCCN2CCN(c3ccccn3)CC2)C1c1cccc([N+](=O)[O-])c1 (stereo not given)
152 to 153	O=C(c1cccnc1)c1cnc2c(cnn2Cc2ccco2)c1O
139 to 141	NC(=O)C(O)C1CC=CCC1 (stereo not given)
161 to 162	COc1c(NC(=O)CC(C)(C)C)c(C)c(C)c2c1C(c1ccc(C(C)C)cc1)CO2 (stereo not given)
186 to 191	CCc1nc2c(N)nc3ccc(OCc4ccccc4)cc3c2n1CCCCNS(C)(=O)=O
160	CCC(=O)OC1c2ccccc2C(=O)N1c1ccc2ccc(Cl)nc2n1 (stereo not given)
163 to 165	CCC(S)=C1SC(=S)N(c2ccc(Cl)cc2)C1=O
132 to 133	COC(=O)c1cc(OC)c(NC(=O)OCc2ccccc2)c(OC)c1
100 to 102	CCCCNC(=O)Cc1ccc2c(c1)c(Cc1ccc(C(=O)NS(=O)(=O)c3ccccc3C)cc1OC)cn2CCC
81 to 83	COc1ccc(NC=O)cn1
102 to 105	COc1ccc(Nc2c([N+](=O)[O-])cc([N+](=O)[O-])cc2C(F)(F)F)nc1
135 to 138	Fc1ccc2nc(Cl)c3nnc(C(F)(F)F)n3c2c1
126 to 128	O=C(CCCCN1CCCCC1)NNC(=O)N1Cc2ccccc2Oc2ccc(Cl)cc21
55 to 58	CN(C)S(=O)(=O)c1ccc(Br)cc1OC(F)(F)F
90	CCN1CCN(C(=O)c2ccc(-c3cc(C(=O)Cc4cccc(C)n4)ccn3)cc2)CC1
190 to 191	Cc1ccc(C(=O)Nc2c(NC(=O)CN(C)C)ccc3c2C(=O)c2ccccc2C3=O)cc1
206 to 208	N#CC(=Cc1cc2ccccc2c2ccccc12)c1ccncc1
240 to 242	Nc1nc2c(ncn2OCC/C=C\P(=O)(O)O)c(=O)[nH]1

melting point [°C]	Compound
174 to 176	Cn1nnnc1Cc1ccc2c(c1)c(C1=CCN(CCN3CCNC3=O)CC1)cn2-c1ccc(F)cc1
163	O=C(c1cc2ccccc2o1)c1ccc(O)c(Cl)c1Cl
134 to 135	CCCc1ccc(NC(=O)c2ccccc2NCc2ccncc2)cc1C(F)(F)F
221	COc1ccc2c(c1)C(=O)c1nc(-c3ccccc3)sc1C2=O
111 to 113	Cc1nn2ccccc2c1SC#N
231 to 233	Oc1nc(-c2ccc(F)cc2)sc1-c1ccccc1
191 to 192	C[C@H]1N(C(=O)c2ccc(C(F)(F)F)cc2F)CC(=O)O[C@@]1(Cn1cncn1)c1ccc(F)cc1F (relative stereo)
233	CC(C)(C)C1=NN(c2ccc(C(=O)O)cc2)C(c2ccccc2)C1 (stereo not given)
130 to 134	CCCCOCCOc1ccc(-c2ccc3c(c2)C=C(C(=O)OC)CCN3C(=O)CNC(C)=O)cc1
117 to 118	COc1ccccc1/C=C/CN1CCC(=O)C(C(c2ccccc2)c2ccccc2)C1 (stereo not given)
86 to 92	CC(=O)OCC=C(C)CS(=O)(=O)c1ccccc1
213 to 215	Cc1cc(C(=O)NCc2cccc3c2C(=O)N(C2CCC(=O)NC2=O)C3=O)nn1C (stereo not given)
> 300	COc1cc2cc3c(Cl)c(C#N)cnc3nc2cc1OC
124 to 126	COC(=O)c1nc2cccc(Br)c2c(O)c1C(=O)OC
206	O=C(O)Cc1c([N+](=O)[O-])ccc2c1O[C@@H](CNCc1ccccc1)CO2
54	CC(C)(O)C(=O)c1ccc(OCC2CO2)cc1 (stereo not given)
188 to 190	Cc1cc(=O)n(C)c2ccc(OCCCN3CCC(NC(=O)c4ccccc4)CC3)cc12
100	CCC(C)(C)NS(=O)(=O)c1ccc(CBr)cc1
219	CS(=O)(=O)c1ccc(N2CC(O)(C(F)(F)F)N=C2c2ccncc2)cc1 (stereo not given)
137 to 138	CS(=O)c1ccc(-n2cnc3ccc(-c4nnc(SCc5cccc(F)c5)o4)cc32)cc1 (stereo not given)
110 to 111	C=CCc1c(OC(C)=O)c(C)cc2ccc(=O)oc12
286 to 289	Cc1nn(C)c2cnc(-c3ccc(C(F)(F)F)cc3)nc12

Compound	melting point [°C]
CC(C)(N)Cc1ccc(NS(=O)(=O)c2ccccc2)cc1	180 to 181
COCC#Cc1ncn2c1CN(C)C(=O)c1c(Cl)cccc1-2	154 to 156
CC(C)(C)OC(=O)c1ncn2c1[C@@H]1CCCN1C(=O)c1cc(F)ccc1-2	154 to 155
CNC(=O)Oc1ccccc1	84 to 85
